13 compounds from patent US9963462B2 (priority 2015, dated 2018) can be followed below.

As usually defined, the IC50 is the concentration that gives 50% inhibition.

In test [1] the target is SNAP-hSPR (sepiapterin reductase, SPR) (Homo sapiens, UniProt P35270). As to the kind of experiment: biochemical. Particulars: terbium labelled SNAP-hSPR / SSZ labelled SNAP-EGFP; read-out: hTR-FRET IC50. The class given is binding.
Test [2] deals with BH4 levels in SK-N-BE (2) cells. As to the kind of experiment: SKN-N-BE (2) cellular assay, BH4 levels by LC-MS. The class given is cell-based. Conditions: Homo sapiens, SKNBE2, read-out: SK-N-BE(2) IC50, SK-N-BE (2) cells, BH4 levels by LC-MS.
Test [3] concerns BH4 production in human peripheral blood mononuclear cells (PBMCs). The test is described as follows: hPBMC assay, inhibition of BH4 production by LC-MS (anti-CD3/anti-CD28 stimulated). The test is classed as cell-based. Conditions: PBMC, read-out: hPBMC IC50.
The test system of test [4] is neuropathic pain-like behaviors after spared nerve injury (SNI). As to the kind of experiment: Behavioral pharmacology model: spared nerve injury (SNI), paw withdrawal threshold, von Frey filaments. The class given is in vivo. Particulars: rat, oral gavage, mechanical endpoint, 4 hrs. The protocol:
(§1) Behavioral Pharmacology Model: Compounds were administered by oral gavage to rats that had undergone one of two nerve injury surgeries: spared nerve injury to injure two of the three peripheral branches of the sciatic nerve or chronic constriction injury of the sciatic nerve. Paw withdrawal thresholds to mechanical stimulation using calibrated von Frey filaments were used as measurement of neuropathic pain-like behaviors.
(§2) Compounds were tested in standard behavioral pharmacology models for pain in rats as described in the literature (see, e.g., Latremoliere et al., Neuron, 86:1393-1406 (2015); Tegeder et al., Nature Medicine, 12:1269-1277 (2006)). Compounds were administered by oral gavage to rats that had undergone one of two nerve injury surgeries: spared nerve injury to injure two of the three peripheral branches of the sciatic nerve (SNI, Decosterd et al., Pain, 87:149-158 (2000)) or chronic constriction injury of the sciatic nerve (CCI, Bennett et al., Pain, 33:87-107 (1988)). Paw withdrawal thresholds to mechanical stimulation using calibrated von Frey filaments were used as measurement of neuropathic pain-like behaviors.

Test [5] deals with neuropathic pain-like behaviors after chronic constriction injury (CCI). The test is described as follows: Behavioral pharmacology model: chronic constriction injury of the sciatic nerve (CCI), paw withdrawal threshold, von Frey filaments. The test is classed as in vivo. Particulars: rat, oral gavage, mechanical endpoint, 4 hrs. The protocol: as §1, §2

Sequence of SNAP-hSPR (sepiapterin reductase, SPR) (P35270 whole entry): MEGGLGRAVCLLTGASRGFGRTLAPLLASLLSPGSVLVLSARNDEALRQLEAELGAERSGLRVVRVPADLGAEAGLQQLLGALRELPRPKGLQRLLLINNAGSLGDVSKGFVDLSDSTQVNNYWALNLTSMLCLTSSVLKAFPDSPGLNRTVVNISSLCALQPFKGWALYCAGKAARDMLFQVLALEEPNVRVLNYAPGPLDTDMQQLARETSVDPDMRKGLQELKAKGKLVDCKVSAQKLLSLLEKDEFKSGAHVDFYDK

As to `Cc1c(C(=O)N2CCC(C(C#N)CCF)CC2)cnn1-c1nn2cccc2c(=O)[nH]1` (stereo not drawn) [Q-1062], the figures for the IC50 in test [1], in test [2] and in test [3] were 1 nM, 100 nM and 97 nM, respectively.
Take `Cc1c(C(=O)N2CCC(C(C#N)CCF)CC2)cnn1-c1nc2c(c(=O)[nH]1)CCC2` (stereo not drawn) [Q-1063]: the IC50 in test [1] was determined as 2 nM; in test [2], 55 nM; in test [3], 120 nM.
Turning to `CCC(=C1CCN(C(=O)c2cnn(-c3nn4cccc4c(=O)[nH]3)c2C)CC1)C(F)(F)F` [Q-1064], the values for the IC50 in test [1], in test [2] and in test [3] were 2 nM, 200 nM and 220 nM, respectively.
Consider `C/C=C(/C1CCN(C(=O)c2cnn(-c3nn4cccc4c(=O)[nH]3)c2C)CC1)C(F)(F)F` [Q-1065], for which the 50% inhibitory concentration (IC50) amounted to 1 nM in test [1], 58 nM in test [2] and 74 nM in test [3].
Consider `Cc1c(C(=O)N2CCC(C(O)C(F)(F)F)CC2)cnn1-c1nn2cccc2c(=O)[nH]1` (stereo not drawn) [Q-1066], for which the results for the half-maximal inhibitory concentration (IC50) in test [1], in test [2] and in test [3] were 1 nM, 300 nM and 82 nM, respectively.
For `Cc1c(C(=O)N2CCC(C(O)C(F)(F)F)CC2)cnn1-c1nc2c(c(=O)[nH]1)CCC2` (stereo not drawn) [Q-1067], in that order: 2 nM, 100 nM and 160 nM.
For `Cc1c(C(=O)N2CCC(c3nc(C#N)co3)CC2)cnn1-c1nn2cccc2c(=O)[nH]1` [Q-1127], the results for the IC50 in test [1] and in test [3] were 1 nM and 15 nM, respectively. Moreover, the “Behavior Significant effect” value in test [4] (20 mpk QD 3 days) is “yes”.
Turning to `Cc1c(C(=O)N2CC(c3ccnc(F)c3)C2)cnn1-c1nn2cccc2c(=O)[nH]1` [Q-1133], the half-inhibitory concentration (IC50) is 2 nM in test [1] and 22 nM in test [3]. Besides, the “Behavior Significant effect” value in test [5] (10 mpk QD 3 days) is recorded as “yes”.
For `Cc1c(C(=O)N2CCN(C3CC(F)(F)C3)CC2)cnn1-c1nn2cccc2c(=O)[nH]1` [Q-1169], the half-inhibitory concentration (IC50) in test [1] came to 1 nM; in test [3], 77 nM. Moreover, the “Behavior Significant effect” value in test [5] (9.5 mpk QD 3 days) was “yes”.
With `Cc1c(C(=O)N2CC3CC(C2)N3C2CC2)cnn1-c1nn2cccc2c(=O)[nH]1` [Q-1195], the IC50 in test [1] is 2 nM; in test [3], 47 nM. In test [4] (15 mpk QD 3 days), the “Behavior Significant effect” value is given as “yes”.
As to `Cc1c(C(=O)N2CCN(C3CCC3(F)F)CC2)nnn1-c1nn2cccc2c(=O)[nH]1` (stereo not drawn) [Q-1204], the half-inhibitory concentration (IC50) in test [1] stood at 1 nM; in test [3], 17 nM. Moreover, the “Behavior Significant effect” value in test [4] (10 mpk QD 3 days) was “yes”.
On to `Cc1c(C(=O)N2CCC2c2ccc(F)nc2)cnn1-c1nn2cccc2c(=O)[nH]1` (stereo not drawn) [Q-1242], for which the IC50 is 5 nM in test [1] and 32 nM in test [3]. Moreover, the “Behavior Significant effect” value in test [4] (10 mpk QD 3 days) is “yes”.
For the compound `Cc1c(C(=O)N2CCN(C3CC(F)(F)C3)CC2)nnn1-c1nn2cccc2c(=O)[nH]1` [Q-1245], the results for the IC50 in test [1] and in test [3] were 1 nM and 26 nM, respectively. In test [5] (9.5 mpk QD 3 days), the “Behavior Significant effect” value is “yes”.
